Each structure is given as a SMILES string. “And” between values parts separate entries of the source, which are not always exact repeats. Identical values can stand only once. Toxic doses and inconclusive results are not listed.

The record followed here is PubChem BioAssay AID256 (DTP/NCI, 2004).

The experiment relates to CD2F1 mice, L1210 leukemia ip, survival T/C. Kind of experiment: NCI In Vivo Anticancer Drug Screen. Data for tumor model L1210 Leukemia (intraperitoneal) in CD2F1 (CDF1) mice. Conditions: higher = longer survival. In outline: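 Compound-dosed mice with transplantable tumor versus matched vehicle controls; endpoint ratio T/C reported.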
Setting [1] is: endpoint: mean survival time, dose: 100.0 mg/kg/injection, schedule: Q04DX002 (ip), vehicle: saline with Tween-80.
[2] abbreviates: endpoint: mean survival time, dose: 200.0 mg/kg/injection, schedule: Q04DX002 (ip), vehicle: saline with Tween-80.
The mark [3] stands for this setting: endpoint: mean survival time, dose: 400.0 mg/kg/injection, schedule: Q04DX002 (ip), vehicle: saline with Tween-80.
The mark [4] stands for this setting: endpoint: mean survival time, dose: 100.0 mg/kg/injection, schedule: Q01DX009 (ip), vehicle: saline with Tween-80.
Where [5] appears, read: endpoint: mean survival time, dose: 200.0 mg/kg/injection, schedule: Q01DX009 (ip), vehicle: saline with Tween-80.
Setting [6] is: endpoint: mean survival time, dose: 400.0 mg/kg/injection, schedule: Q01DX009 (ip), vehicle: saline with Tween-80.
Where [7] appears, read: endpoint: mean survival time, dose: 100.0 mg/kg/injection, schedule: Q04DX003 (ip), vehicle: saline with Tween-80.
Where [8] appears, read: endpoint: mean survival time, dose: 12.5 mg/kg/injection, schedule: Q01DX005 (ip), vehicle: distilled water + Tween-80.
Setting [9] is: endpoint: mean survival time, dose: 25.0 mg/kg/injection, schedule: Q01DX005 (ip), vehicle: distilled water + Tween-80.
[10] abbreviates: endpoint: mean survival time, dose: 50.0 mg/kg/injection, schedule: Q01DX005 (ip), vehicle: distilled water + Tween-80.
Where [11] appears, read: endpoint: mean survival time, dose: 100.0 mg/kg/injection, schedule: Q01DX005 (ip), vehicle: distilled water + Tween-80.
Where [12] appears, read: endpoint: mean survival time, dose: 200.0 mg/kg/injection, schedule: Q01DX005 (ip), vehicle: distilled water + Tween-80.
Setting [13] is: endpoint: mean survival time, dose: 200.0 mg/kg/injection, schedule: Q04DX003 (ip), vehicle: saline with Tween-80.
Setting [14] is: endpoint: mean survival time, dose: 400.0 mg/kg/injection, schedule: Q04DX003 (ip), vehicle: saline with Tween-80.
[15] abbreviates: endpoint: mean survival time, dose: 50.0 mg/kg/injection, schedule: Q01DX009 (ip), vehicle: saline with Tween-80.

For `NC(CCC(=O)c1ccccn1)C(=O)O` (centres undefined), the T/C (endpoint: mean survival time, dose: 50.0 mg/kg/injection, schedule: Q01DX009 (ip), vehicle: saline) was 96 % of control; the T/C (endpoint: mean survival time, dose: 100.0 mg/kg/injection, schedule: Q01DX009 (ip), vehicle: saline) was 96 % of control; the T/C (endpoint: mean survival time, dose: 100.0 mg/kg/injection, schedule: Q04DX003 (ip), vehicle: saline) was 96 % of control; the T/C (endpoint: mean survival time, dose: 200.0 mg/kg/injection, schedule: Q01DX009 (ip), vehicle: saline) was 100 % of control; the T/C (endpoint: mean survival time, dose: 200.0 mg/kg/injection, schedule: Q04DX003 (ip), vehicle: saline) is 98 % of control.

As for `CCCCCCCCCCCCn1cnc2c(Cl)ncnc21`, the T/C runs as follows: (endpoint: mean survival time, dose: 12.5 mg/kg/injection, schedule: Q01DX005 (ip), vehicle: other) 102 % of control; (endpoint: mean survival time, dose: 25.0 mg/kg/injection, schedule: Q01DX005 (ip), vehicle: other) 96 % of control; (endpoint: mean survival time, dose: 50.0 mg/kg/injection, schedule: Q01DX005 (ip), vehicle: other) 100 % of control; (endpoint: mean survival time, dose: 100.0 mg/kg/injection, schedule: Q01DX005 (ip), vehicle: other) 94 % of control; (endpoint: mean survival time, dose: 200.0 mg/kg/injection, schedule: Q01DX005 (ip), vehicle: other) 100 % of control.

As for `Nc1nc2c(ncn2-c2ccc3oc4ccccc4c3c2)c(=O)[nH]1`, the T/C (endpoint: mean survival time, dose: 100.0 mg/kg/injection, schedule: Q01DX001 (ip), vehicle: saline with Tween-80) is 93 % of control and 108 % of control; the T/C under setting [1] is 101 % of control; the T/C (endpoint: mean survival time, dose: 200.0 mg/kg/injection, schedule: Q01DX001 (ip), vehicle: saline with Tween-80) was 89 % of control and 97 % of control; the T/C under setting [2] was 97 % of control; the T/C (endpoint: mean survival time, dose: 400.0 mg/kg/injection, schedule: Q01DX001 (ip), vehicle: saline with Tween-80) was 89 % of control and 101 % of control; the T/C under setting [3] was 108 % of control.

Turning to `CN=C(N)N/N=C(\C)c1ccc2oc3ccc(/C(C)=N/NC(N)=NC)cc3c2c1`, the T/C (endpoint: median survival time, dose: 4.7 mg/kg/injection, schedule: Q01DX009 (ip), vehicle: saline with Tween-80) was 123 % of control; the T/C (endpoint: median survival time, dose: 6.25 mg/kg/injection, schedule: Q01DX009 (ip), vehicle: saline with Tween-80) was 117 % of control; the T/C (endpoint: median survival time, dose: 9.38 mg/kg/injection, schedule: Q01DX009 (ip), vehicle: saline with Tween-80) was 121 % of control; the T/C (endpoint: median survival time, dose: 12.5 mg/kg/injection, schedule: Q01DX009 (ip), vehicle: saline with Tween-80) was 123 % of control; the T/C (endpoint: median survival time, dose: 50.0 mg/kg/injection, schedule: Q01DX009 (ip), vehicle: saline with Tween-80) is 122 % of control; the T/C (endpoint: median survival time, dose: 75.0 mg/kg/injection, schedule: Q01DX009 (ip), vehicle: saline with Tween-80) was 90 % of control.

Regarding `CCCCOC(N)=O`, the T/C under setting [4] was 100 % of control, the T/C under setting [5] was 105 % of control and the T/C under setting [6] is 97 % of control.

With `CCOC(=O)CCN(CCC(=O)OCC)Cc1ccccc1`, the T/C under setting [1] was 112 % of control, the T/C under setting [2] is 100 % of control and the T/C under setting [3] was 103 % of control.

`Cc1ccc(S(=O)(=O)NOCCCCONS(=O)(=O)c2ccc(C)cc2)cc1`: the T/C reads like this: (endpoint: mean survival time, dose: 25.0 mg/kg/injection, schedule: Q04DX003 (ip), vehicle: saline with Tween-80) 91 % of control; (endpoint: mean survival time, dose: 50.0 mg/kg/injection, schedule: Q04DX003 (ip), vehicle: saline with Tween-80) 89 % of control; under setting [7], 89 % of control and 97 % of control.

`Cn1c(=O)c2c(nc(Br)n2CC(O)CF)n(C)c1=O` (centres undefined): the T/C by setting is: under setting [8], 101 % of control; under setting [9], 98 % of control; under setting [10], 98 % of control; under setting [11], 101 % of control; under setting [12], 96 % of control.

Turning to `OCCN1CCSC1=S`, the T/C is, setting by setting: under setting [7], 101 % of control; under setting [13], 97 % of control; under setting [14], 92 % of control.

Turning to `OCc1ccn2c1CCC2`, the T/C was 101 % of control (endpoint: mean survival time, dose: 12.5 mg/kg/injection, schedule: Q01DX009 (ip), vehicle: Klucel (hydroxypropylcellulose) (HPC)); 100 % of control (endpoint: mean survival time, dose: 50.0 mg/kg/injection, schedule: Q01DX009 (ip), vehicle: Klucel (hydroxypropylcellulose) (HPC)); 101 % of control (endpoint: mean survival time, dose: 100.0 mg/kg/injection, schedule: Q01DX009 (ip), vehicle: Klucel (hydroxypropylcellulose) (HPC)).

Take `CSc1ccnc2ccccc12`: the T/C was 106 % of control (endpoint: mean survival time, dose: 12.5 mg/kg/injection, schedule: Q01DX009 (ip), vehicle: other); 100 % of control (endpoint: mean survival time, dose: 25.0 mg/kg/injection, schedule: Q01DX009 (ip), vehicle: other); 103 % of control (endpoint: mean survival time, dose: 50.0 mg/kg/injection, schedule: Q01DX009 (ip), vehicle: other).

As to `COC(=O)C(CSCc1ccccc1)NC(=O)C(C)NC(=O)OCc1ccccc1` (centres undefined), the T/C by setting is: under setting [4], 88 % of control; under setting [5], 92 % of control; under setting [6], 92 % of control.

For the molecule `O=C(Nc1ccccc1SC(=O)c1ccccc1)c1ccccc1`, the T/C runs as follows: under setting [15], 91 % of control; under setting [4], 87 % of control; under setting [5], 91 % of control.

For `S=c1[nH]ccn1-c1cccc(Br)c1`, the T/C was 112 % of control under setting [4], 103 % of control under setting [5] and 112 % of control under setting [6].

`Cc1ccc(NC(=O)OCCSc2ccc(Cl)cc2)cc1C`: the T/C under setting [15] was 96 % of control and the T/C under setting [4] is 92 % of control.

As for `CC(=O)NC(C(=O)O)C(C)C.CC(=O)NC(C(=O)O)C(C)C.[NH-]C1CCCCC1[NH-].[Pt+2]` (centres undefined), the T/C (endpoint: median survival time, dose: 3.12 mg/kg/injection, schedule: Q04DX003 (ip), vehicle: saline) is 102 % of control and 107 % of control and 108 % of control; the T/C (endpoint: median survival time, dose: 6.25 mg/kg/injection, schedule: Q04DX003 (ip), vehicle: saline) is 107 % of control [middle of 4 runs]; the T/C (endpoint: median survival time, dose: 12.5 mg/kg/injection, schedule: Q04DX003 (ip), vehicle: saline) is 112 % of control [middle of 4 runs]; the T/C (endpoint: median survival time, dose: 25.0 mg/kg/injection, schedule: Q04DX003 (ip), vehicle: saline) was 112 % of control [middle of 4 runs]; the T/C (endpoint: median survival time, dose: 50.0 mg/kg/injection, schedule: Q04DX003 (ip), vehicle: saline) was 122 % of control and 119 % of control; the T/C (endpoint: median survival time, dose: 200.0 mg/kg/injection, schedule: Q04DX003 (ip), vehicle: saline) was 187 % of control [middle of 4 runs].

On to `O=[N+]([O-])c1ccc(S(=O)(=O)O)cc1`, for which the T/C (endpoint: mean survival time, dose: 100.0 mg/kg/injection, schedule: Q01DX001 (ip), vehicle: saline) was 95 % of control; the T/C (endpoint: mean survival time, dose: 200.0 mg/kg/injection, schedule: Q01DX001 (ip), vehicle: saline) was 105 % of control; the T/C (endpoint: mean survival time, dose: 400.0 mg/kg/injection, schedule: Q01DX001 (ip), vehicle: saline) is 100 % of control.

Regarding `Cc1ccc(CNc2cccnc2)cc1`, the T/C by setting is: under setting [7], 98 % of control; under setting [13], 93 % of control; under setting [14], 95 % of control.

For `C[N+](C)(C)Cc1ncccc1OC(=O)N(c1ccccc1)c1ccccc1`, the T/C by setting is: (endpoint: mean survival time, dose: 25.0 mg/kg/injection, schedule: Q01DX009 (ip), vehicle: saline with Tween-80) 98 % of control; under setting [15], 96 % of control; under setting [4], 107 % of control.

With `NC(C(=O)O)C(O)c1cnc[nH]1` (centres undefined), the T/C (endpoint: mean survival time, dose: 12.5 mg/kg/injection, schedule: Q01DX009 (ip), vehicle: water) is 96 % of control; the T/C (endpoint: mean survival time, dose: 25.0 mg/kg/injection, schedule: Q01DX009 (ip), vehicle: water) is 100 % of control; the T/C (endpoint: mean survival time, dose: 50.0 mg/kg/injection, schedule: Q01DX009 (ip), vehicle: water) was 100 % of control; the T/C (endpoint: mean survival time, dose: 100.0 mg/kg/injection, schedule: Q01DX009 (ip), vehicle: water) is 104 % of control; the T/C (endpoint: mean survival time, dose: 200.0 mg/kg/injection, schedule: Q01DX009 (ip), vehicle: water) is 102 % of control.

`Cn1c(=O)c2c(ncn2CCNCC(O)c2cc(C(C)(C)C)c(O)c(C(C)(C)C)c2)n(C)c1=O` (centres undefined): the T/C under setting [8] is 100 % of control; the T/C under setting [9] was 100 % of control; the T/C under setting [10] is 106 % of control; the T/C under setting [11] was 109 % of control; the T/C under setting [12] is 101 % of control.

Regarding `Clc1ccc(N=Cc2ccccc2Cl)cc1`, the T/C was 107 % of control under setting [7], 113 % of control under setting [13] and 100 % of control under setting [14].
